Data as given in PubChem BioAssay (NCI).
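96-well plates; 48 h exposure; 5 concentrations. Endpoints by linear interpolation between flanking doses. Not reached: highest tested concentration assigned. TGI marks complete inhibition of growth.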

Experiments:
Test in all cases: inhibition of tumour cell growth, NCI panel, 48 h
A549 NSCLC = test system: A549 NSCLC
ACHN renal = test system: ACHN renal
CCRF-CEM leukemia = test system: CCRF-CEM leukemia
COLO 205 colon = test system: COLO 205 colon
EKVX NSCLC = test system: EKVX NSCLC
HCC-2998 colon = test system: HCC-2998 colon
HCT-15 colon = test system: HCT-15 colon
HOP-62 NSCLC = test system: HOP-62 NSCLC
IGROV1 ovarian = test system: IGROV1 ovarian
MOLT-4 leukemia = test system: MOLT-4 leukemia
NCI-H23 lung = test system: NCI-H23 lung
OVCAR-3 ovarian = test system: OVCAR-3 ovarian
RPMI-8226 leukemia = test system: RPMI-8226 leukemia
SF-268 CNS = test system: SF-268 CNS
SK-MEL-2 melanoma = test system: SK-MEL-2 melanoma
SK-MEL-28 melanoma = test system: SK-MEL-28 melanoma
SK-OV-3 ovarian = test system: SK-OV-3 ovarian
SNB-19 CNS = test system: SNB-19 CNS
TK-10 renal = test system: TK-10 renal
UO-31 renal = test system: UO-31 renal

Structure (SMILES) | TGI (A549 NSCLC) [µM] | TGI (ACHN renal) [µM] | TGI (CCRF-CEM leukemia) [µM] | TGI (COLO 205 colon) [µM] | TGI (EKVX NSCLC) [µM] | TGI (HCC-2998 colon) [µM] | TGI (HCT-15 colon) [µM] | TGI (HOP-62 NSCLC) [µM] | TGI (IGROV1 ovarian) [µM] | TGI (MOLT-4 leukemia) [µM] | TGI (NCI-H23 lung) [µM] | TGI (OVCAR-3 ovarian) [µM] | TGI (RPMI-8226 leukemia) [µM] | TGI (SF-268 CNS) [µM] | TGI (SK-MEL-2 melanoma) [µM] | TGI (SK-MEL-28 melanoma) [µM] | TGI (SK-OV-3 ovarian) [µM] | TGI (SNB-19 CNS) [µM] | TGI (TK-10 renal) [µM] | TGI (UO-31 renal) [µM]
O=Nn1c2ccccc2c2cc([N+](=O)[O-])ccc21 | 73.2 | 29.3 | 44.5 | > 100 | 36.3 | > 100 | > 100 | 25.7 | 30.2 | 70.9 | 38.3 | 33.6 | 38.8 | 32.7 | 96.8 | 39.3 | 30.1 | 58.1 | 32.1 | 49.2
CC(C)OP(=O)(OC(C)C)C1=NN(c2ccc([N+](=O)[O-])cc2)C(P(=O)(OC(C)C)OC(C)C)=NN1c1ccc([N+](=O)[O-])cc1 | > 100 | > 100 | > 100 | > 100 | > 100 | > 100 | > 100 | > 100 | > 100 | > 100 | > 100 | > 100 | > 100 | > 100 | > 100 | > 100 | > 100 | > 100 | > 100 | > 100
